In article PMC3030623 (Journal of the American Chemical Society, 2010):

Target: T1, Sfp (Bacillus subtilis, UniProt P39135)
T1 sequence (P39135 1-224): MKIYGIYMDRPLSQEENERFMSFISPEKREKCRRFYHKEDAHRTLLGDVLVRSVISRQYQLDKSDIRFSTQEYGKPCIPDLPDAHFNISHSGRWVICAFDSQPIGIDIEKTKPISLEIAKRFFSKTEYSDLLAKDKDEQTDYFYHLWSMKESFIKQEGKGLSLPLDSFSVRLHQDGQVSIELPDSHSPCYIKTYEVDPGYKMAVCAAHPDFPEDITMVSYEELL
Test: ESI-MS of acyl-phosphopantetheine transfer to apo-ACPtcsA
Format: biochemical
Details: co-substrate apo-ACPtcsA (ACP domain of TcsA)

Q: Which “ESI-MS of acyl-phosphopantetheine transfer to apo-ACPtcsA” value does the source give for `CC/C=C/C(=O)SCCNC(=O)CCNC(=O)[C@H](O)C(C)(C)COP(=O)(O)OP(=O)(O)OC[C@H]1O[C@@H](n2cnc3c(N)ncnc32)[C@H](O)[C@@H]1OP(=O)(O)O` [compound 11, trans-2-pentenyl-CoA] here?
A: we biochemically converted apo-ACPtcsA to trans-2-pentenyl-ACPtcsA
